Assay results: the supplement of paper PMC10307832

Key:
Assay in all cases: relative viability (nuclei count vs DMSO), 5 days (fraction); higher = more cells survive
FH535 = compound: CC1=C(C=CC(=C1)[N+](=O)[O-])NS(=O)(=O)C2=C(C=CC(=C2)Cl)Cl [FH535]
In short: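 Only plates meeting two conditions passed: control CV below 25% and at least one doubling. Lung cancer cell lines, kept overnight at 37 °C in 1536-well plates, were pinned with five library-drug doses (not always all listed) √10 apart on vehicle-anchored plates and grown 5 days without medium change. A one-step fix, permeabilisation and Hoechst stain preceded 4× imaging and MetaXpress nuclear counting. Viability equals treated-well nuclei divided by vehicle-well nuclei, as the median over plates.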

FH535 + Navitoclax = compound: CC1=C(C=CC(=C1)[N+](=O)[O-])NS(=O)(=O)C2=C(C=CC(=C2)Cl)Cl [FH535] + CC1(C)CCC(c2ccc(Cl)cc2)=C(CN2CCN(c3ccc(C(=O)NS(=O)(=O)c4ccc(N[C@H](CCN5CCOCC5)CSc5ccccc5)c(S(=O)(=O)C(F)(F)F)c4)cc3)CC2)C1 [Navitoclax] (partner 0.5 µM)
In short: (§1)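 Five library-drug doses in √10 steps were combined with a fixed anchor-drug dose, or a single drug was given alone, by pin tool to lung cancer cell lines in 1536-well plates the day after seeding. Nuclei were stained and counted after 5 days. Relative viability is the nuclei count in treated wells over that in vehicle wells, taken as the median of duplicate plates.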

FH535 + OSI-027 = compound: CC1=C(C=CC(=C1)[N+](=O)[O-])NS(=O)(=O)C2=C(C=CC(=C2)Cl)Cl [FH535] + COc1cccc2cc(-c3nc([C@H]4CC[C@H](C(=O)O)CC4)n4ncnc(N)c34)[nH]c12 [OSI-027] (partner 0.5 µM)
In short: as §1

FH535 + Pictilisib = compound: CC1=C(C=CC(=C1)[N+](=O)[O-])NS(=O)(=O)C2=C(C=CC(=C2)Cl)Cl [FH535] + CS(=O)(=O)N1CCN(Cc2cc3nc(-c4cccc5[nH]ncc45)nc(N4CCOCC4)c3s2)CC1 [Pictilisib] (partner 1 µM)
In short: as §1

FH535 + Decitabine = compound: CC1=C(C=CC(=C1)[N+](=O)[O-])NS(=O)(=O)C2=C(C=CC(=C2)Cl)Cl [FH535] + Nc1ncn([C@H]2C[C@H](O)[C@@H](CO)O2)c(=O)n1 [Decitabine] (partner 2 µM)
In short: as §1

Row | Cell Line | relative viability (FH535; 0.04 µM) | relative viability (FH535; 0.1265 µM) | relative viability (FH535; 0.4 µM) | relative viability (FH535; 1.265 µM) | relative viability (FH535 + Navitoclax; first compound 0.04 µM) | relative viability (FH535 + Navitoclax; first compound 0.1265 µM) | relative viability (FH535 + Navitoclax; first compound 0.4 µM) | relative viability (FH535 + Navitoclax; first compound 1.265 µM) | relative viability (FH535 + OSI-027; first compound 0.04 µM) | relative viability (FH535 + OSI-027; first compound 0.1265 µM) | relative viability (FH535 + OSI-027; first compound 0.4 µM) | relative viability (FH535 + OSI-027; first compound 1.265 µM) | relative viability (FH535 + Pictilisib; first compound 0.04 µM) | relative viability (FH535 + Pictilisib; first compound 0.1265 µM) | relative viability (FH535 + Pictilisib; first compound 0.4 µM) | relative viability (FH535 + Pictilisib; first compound 1.265 µM) | relative viability (FH535 + Decitabine; first compound 0.04 µM) | relative viability (FH535 + Decitabine; first compound 0.1265 µM) | relative viability (FH535 + Decitabine; first compound 0.4 µM) | relative viability (FH535 + Decitabine; first compound 1.265 µM)
1 | NCI-H2087 | 1.05 | 1.01 | 0.845 | 0.683 | 0.811 | 1.11 | 0.947 | 0.518 | 0.522 | 0.454 | 0.478 | 0.421 | 0.885 | 0.885 | 0.731 | 0.52 | 0.26 | 0.225 | 0.194 | 0.18
2 | NCI-H2126 | 0.961 | 1.02 | 0.888 | 0.67 | 0.779 | 0.875 | 0.778 | 0.628 | 0.72 | 0.742 | 0.692 | 0.532 | 0.472 | 0.497 | 0.472 | 0.425 | 0.59 | 0.582 | 0.574 | 0.415
3 | NCI-H2170 | 0.904 | 1.02 | 0.963 | 0.858 | 0.612 | 0.548 | 0.597 | 0.54 | 0.72 | 0.779 | 0.619 | 0.554 | 0.255 | 0.418 | 0.315 | 0.285 | 0.433 | 0.473 | 0.443 | 0.447
4 | NCI-H2347 | 0.986 | 0.974 | 1.02 | 0.842 | 0.684 | 0.792 | 0.871 | 0.705 | 0.405 | 0.486 | 0.306 | 0.37 | 0.484 | 0.591 | 0.639 | 0.726 | 0.594 | 0.678 | 0.614 | 0.572
5 | NCI-H2405 | 0.922 | 0.967 | 0.882 | 0.713 | 0.762 | 0.976 | 0.868 | 0.448 | 0.605 | 0.62 | 0.564 | 0.439 | 0.329 | 0.447 | 0.425 | 0.422 | 0.688 | 0.75 | 0.689 | 0.571
6 | NCI-H3122 | 0.933 | 0.995 | 0.978 | 0.885 | 1.02 | 1.05 | 1.01 | 0.947 | 0.919 | 1.06 | 0.885 | 0.751 | 0.583 | 0.585 | 0.57 | 0.564 | 0.338 | 0.393 | 0.46 | 0.413
